Drawing on patent US20230079045A1 (priority 2019, published 2023), this text covers EC50 for 17 molecules.

For test [1], the system named is IFVA/Weiss/43. Put plainly: cytopathic effect (CPE) antiviral test in MDCK cells, IFVA/Weiss/43. It is filed as cell-based, influenza virus. The settings on record: unidentified influenza virus, MDCK, 120 h, read-out: EC50(IFVA/Weiss/43), MDCK cells, CPE method, CCK-8 cell viability, 5 days. A general note: Protection from cytopathic effect is a common read-out in antiviral testing.

The subject of test [2] is IFVA/Mal/302/54. As to the kind of experiment: cytopathic effect (CPE) antiviral test in MDCK cells, IFVA/Mal/302/54. Conditions: unidentified influenza virus, MDCK, 120 h, read-out: EC50(IFVA/Mal/302/54), MDCK cells, CPE method, CCK-8 cell viability, 5 days. Format: cell-based, influenza virus.

Take `CC(=O)Nc1ccc2oc(-c3ccnc(C(=O)N4CCN(C(c5nnn(C)n5)c5ccccc5F)CC4)c3)nc2c1` (stereo not shown) [Compound 9, N-(2-(2-(4-((2-fluorophenyl)(2-methyl-2H-tetrazol-5-yl)methyl)piperazine-1-carbonyl)pyridin-4-yl)benzo[d]oxazol-5-yl)acetamide]: the figures for the EC50 in test [1] and in test [2] were 126 nM and 214 nM, respectively.
With `CC(=O)Nc1ccc2oc(-c3ccnc(C(=O)N4CC5(C4)CN(C(c4ccccc4)c4nnn(C)n4)C5)c3)nc2c1` (stereo not shown) [Compound 10, N-(2-(2-(6-((2-methyl-2H-tetrazol-5-yl)(phenyl)methyl)-2,6-diazaspiro[3.3]heptane-2-carbonyl)pyridin-4-yl)benzo[d]oxazol-5-yl)acetamide], the EC50 in test [1] and in test [2] was more than 10000 nM throughout.
Consider `CC(=O)Nc1ccc2oc(-c3ccnc(C(=O)N4CCN(C(c5cccc(F)c5)c5nnn(C)n5)CC4)c3)nc2c1` (stereo not shown) [Compound 11, N-(2-(2-(4-((3-fluorophenyl)(2-methyl-2H-tetrazol-5-yl)methyl)piperazine-1-carbonyl)pyridin-4-yl)benzo[d]oxazol-5-yl)acetamide], for which the EC50 came to 173 nM in test [1] and 260 nM in test [2].
`CC(=O)Nc1ccc2oc(-c3ccnc(C(=O)N4CCN(C(c5ccc(F)cc5)c5nnn(C)n5)CC4)c3)nc2c1` (stereo not shown) [Compound 12, N-(2-(2-(4-((4-fluorophenyl)(2-methyl-2H-tetrazol-5-yl)methyl)piperazine-1-carbonyl)pyridin-4-yl)benzo[d]oxazol-5-yl)acetamide]: the EC50 in test [1] was 22 nM; in test [2] it was 55 nM.
Taken in the same sequence, the figures for `CC(=O)Nc1ccc2oc(-c3ccnc(C(=O)N4CCC5(CC4)CN(C(c4ccccc4)c4nnn(C)n4)C5)c3)nc2c1` (stereo not shown) [Compound 13, N-(2-(2-(2-((2-methyl-2H-tetrazol-5-yl)(phenyl)methyl)-2,7-diazaspiro[3.5]nonane-7-carbonyl)pyridin-4-yl)benzo[d]oxazol-5-yl)acetamide] were more than 10000 nM and 7830 nM.
The matching figures for `CC(=O)Nc1ccc2oc(-c3ccnc(C(=O)N4C[C@@H]5C[C@H]4CN5C(c4ccccc4)c4nnn(C)n4)c3)nc2c1` (stereo partly drawn) [Compound 14, N-(2-(2-((1S,4S)-5-((2-methyl-2H-tetrazol-5-yl)(phenyl)methyl)-2,5-diazabicyclo[2.2.1]heptane-2-carbonyl)pyridin-4-yl)benzo[d]oxazol-5-yl)acetamide]: 383 nM and 1100 nM.
The matching figures for `CC(=O)Nc1ccc2oc(-c3ccc(C#N)c(C(=O)N4CCN(C(c5ccccc5)c5nnn(C)n5)CC4)c3)nc2c1` (stereo not shown) [Compound 15, N-(2-(4-cyano-3-(4-((2-methyl-2H-tetrazol-5-yl)(phenyl)methyl)piperazine-1-carbonyl)phenyl)benzo[d]oxazol-5-yl)acetamide]: more than 10000 nM and more than 10000 nM.
As to `CC(=O)Nc1ccc2oc(-c3ccnc(C(=O)N4C5CCC4CN(C(c4ccccc4)c4nnn(C(F)F)n4)C5)c3)nc2c1` (stereo not shown) [Compound 17, N-(2-(2-(3-((2-(difluoromethyl)-2H-tetrazol-5-yl)(phenyl)methyl)-3,8-diazabicyclo[3.2.1]octane-8-carbonyl)pyridin-4-yl)benzo[d]oxazol-5-yl)acetamide], the values for the EC50 in test [1] and in test [2] were 9 nM and 22 nM, respectively.
The matching figures for `CC(=O)Nc1ccc2oc(-c3ccnc(C(=O)N4C5CCC4CN(C(c4ccccc4)c4nnnn4C(F)F)C5)c3)nc2c1` (stereo not shown) [Compound 18, N-(2-(2-(3-((1-(difluoromethyl)-1H-tetrazol-5-yl)(phenyl)methyl)-3,8-diazabicyclo[3.2.1]octane-8-carbonyl)pyridin-4-yl)benzo[d]oxazol-5-yl)acetamide]: 422 nM and 177 nM.
The matching figures for `Cn1nnc(C(c2ccccc2)N2C[C@H]3CC[C@@H](C2)N3C(=O)c2cc(-c3nc4cc(N5CCCC5=O)ccc4o3)ccn2)n1` (stereo partly drawn) [Compound 19, 1-(2-(2-((1R,5S)-3-((2-methyl-2H-tetrazol-5-yl)(phenyl)methyl)-3,8-diazabicyclo[3.2.1]octane-8-carbonyl)pyridin-4-yl)benzo[d]oxazol-5-yl)pyrrolidin-2-one]: 23 nM and 19 nM.
The matching figures for `CC(=O)Nc1ccc2oc(-c3ccnc(C(=O)N4C5CC4CN(C(c4ccccc4)c4nnn(C)n4)C5)c3)nc2c1` (stereo not shown) [Compound 20, N-(2-(2-(3-((2-methyl-2H-tetrazol-5-yl)(phenyl)methyl)-3,6-diazabicyclo[3.1.1]heptane-6-carbonyl)pyridin-4-yl)benzo[d]oxazol-5-yl)acetamide]: 545 nM and 919 nM.
Regarding `Cn1nnc(C(c2ccccc2)N2CC3CC(C2)N3C(=O)c2cc(-c3nc4cc(NC(=O)C5CC5)ccc4o3)ccn2)n1` (stereo not shown) [Compound 21, N-(2-(2-(3-((2-methyl-2H-tetrazol-5-yl)(phenyl)methyl)-3,6-diazabicyclo[3.1.1]heptane-6-carbonyl)pyridin-4-yl)benzo[d]oxazol-5-yl)cyclopropanecarboxamide], the EC50 in test [1] is 163 nM; in test [2], 436 nM.
Regarding `CC(=O)Nc1ccc2oc(-c3ccnc(C(=O)N4C5CCC4CN(C(c4ccccc4)c4nnn(CCF)n4)C5)c3)nc2c1` (stereo not shown) [Compound 22, N-(2-(2-(3-((2-(2-fluoroethyl)-2H-tetrazol-5-yl)(phenyl)methyl)-3,8-diazabicyclo[3.2.1]octane-8-carbonyl)pyridin-4-yl)benzo[d]oxazol-5-yl)acetamide], the EC50 is 25 nM in test [1] and 33 nM in test [2].
In the case of `CC(=O)Nc1ccc2oc(-c3ccnc(C(=O)N4CC5CC(C4)N5C(c4ccccc4)c4nnn(C)n4)c3)nc2c1` (stereo not shown) [Compound 23, N-(2-(2-(6-((2-methyl-2H-tetrazol-5-yl)(phenyl)methyl)-3,6-diazabicyclo[3.1.1]heptane-3-carbonyl)pyridin-4-yl)benzo[d]oxazol-5-yl)acetamide], the EC50 in test [1] and in test [2] was more than 10000 nM each time.
For `Cn1nnc(C(c2ccccc2)N2CCN(C(=O)c3cc(-c4nc5cc(NC(=O)[C@@H]6CC6(F)F)ccc5o4)ccn3)CC2)n1` (stereo partly drawn) [Compound 24, (1S)-2,2-difluoro-N-(2-(2-(4-((2-methyl-2H-tetrazol-5-yl)(phenyl)methyl)piperazine-1-carbonyl)pyridin-4-yl)benzo[d]oxazol-5-yl)cyclopropane-1-carboxamide], the EC50 is 12 nM in test [1] and 32 nM in test [2].
Taken in the same sequence, the figures for `Cn1nnc(C(c2ccccc2)N2CCN(C(=O)c3cc(-c4nc5cc(NC(=O)[C@@H]6C[C@H]6F)ccc5o4)ccn3)CC2)n1` (stereo partly drawn) [Compound 25, (1S,2R)-2-fluoro-N-(2-(2-(4-((2-methyl-2H-tetrazol-5-yl)(phenyl)methyl)piperazine-1-carbonyl)pyridin-4-yl)benzo[d]oxazol-5-yl)cyclopropane-1-carboxamide] were 60 nM and 68 nM.
Taken in the same sequence, the figures for `Cn1nnc(C(c2ccccc2)N2CCN(C(=O)c3cc(-c4nc5cc(NC(=O)[C@@H]6C[C@@H]6F)ccc5o4)ccn3)CC2)n1` (stereo partly drawn) [Compound 26, (1S,2S)-2-fluoro-N-(2-(2-(4-((2-methyl-2H-tetrazol-5-yl)(phenyl)methyl)piperazine-1-carbonyl)pyridin-4-yl)benzo[d]oxazol-5-yl)cyclopropane-1-carboxamide] were 3 nM and 20 nM.
